Test results reported in ChEMBL document CHEMBL1157885, “The discovery and structure-activity relationships of 2-(piperidin-3-yl)-1H-benzimidazoles as selective, CNS penetrating H1-antihistamines for insomnia” (Bioorg Med Chem Lett, 2010).

Tests used:
Cytochrome P450 3A4 = Cytochrome P450 3A4 (Homo sapiens, UniProt P08684); assay: (§1) Inhibition of CYP3A4; format: ADME
[1] = molecular target: T1, Voltage-gated inwardly rectifying potassium channel KCNH2 (Homo sapiens, UniProt Q12809); assay: Displacement of [3H]dofetolide from human ERG channel expressed in HEK293 cells by liquid scintillation counting; format: cell-based
T1 sequence (Q12809 whole entry): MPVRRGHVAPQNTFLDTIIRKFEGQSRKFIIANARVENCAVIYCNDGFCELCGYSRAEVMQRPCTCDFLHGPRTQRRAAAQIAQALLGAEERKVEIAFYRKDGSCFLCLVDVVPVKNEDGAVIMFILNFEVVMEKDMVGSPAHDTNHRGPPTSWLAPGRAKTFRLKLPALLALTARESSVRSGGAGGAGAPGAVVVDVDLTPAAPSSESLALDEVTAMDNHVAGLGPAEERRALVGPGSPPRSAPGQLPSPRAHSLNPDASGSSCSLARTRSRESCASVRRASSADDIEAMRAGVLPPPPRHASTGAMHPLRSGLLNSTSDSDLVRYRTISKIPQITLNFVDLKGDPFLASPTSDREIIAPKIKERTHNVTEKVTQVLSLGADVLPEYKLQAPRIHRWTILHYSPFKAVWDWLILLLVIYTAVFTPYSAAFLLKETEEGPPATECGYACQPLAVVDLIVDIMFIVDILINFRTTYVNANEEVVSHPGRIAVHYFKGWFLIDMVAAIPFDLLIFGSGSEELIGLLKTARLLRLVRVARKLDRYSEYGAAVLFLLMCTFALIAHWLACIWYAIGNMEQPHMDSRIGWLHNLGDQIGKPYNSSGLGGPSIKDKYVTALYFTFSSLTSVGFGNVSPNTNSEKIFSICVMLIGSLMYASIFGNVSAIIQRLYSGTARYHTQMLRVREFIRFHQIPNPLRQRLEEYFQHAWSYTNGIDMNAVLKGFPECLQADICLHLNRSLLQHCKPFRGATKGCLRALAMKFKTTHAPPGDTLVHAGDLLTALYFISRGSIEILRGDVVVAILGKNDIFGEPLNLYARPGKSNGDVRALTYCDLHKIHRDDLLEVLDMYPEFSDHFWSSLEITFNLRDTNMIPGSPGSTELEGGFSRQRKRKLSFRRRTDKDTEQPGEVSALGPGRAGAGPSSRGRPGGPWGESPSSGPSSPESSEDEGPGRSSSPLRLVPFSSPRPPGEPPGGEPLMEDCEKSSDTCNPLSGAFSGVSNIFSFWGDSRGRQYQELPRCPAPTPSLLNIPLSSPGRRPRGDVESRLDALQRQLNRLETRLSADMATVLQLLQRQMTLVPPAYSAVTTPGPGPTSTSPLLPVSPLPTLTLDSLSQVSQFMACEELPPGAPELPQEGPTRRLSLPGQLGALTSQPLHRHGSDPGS

Histamine H1 receptor = Histamine H1 receptor (Homo sapiens, UniProt P35367); assay: Displacement of [3H]pyrilamine from human histamine H1 receptor expressed in CHO Flp-In cells by liquid scintillation counting; format: cell-based
Sequence of Histamine H1 receptor (P35367 whole entry): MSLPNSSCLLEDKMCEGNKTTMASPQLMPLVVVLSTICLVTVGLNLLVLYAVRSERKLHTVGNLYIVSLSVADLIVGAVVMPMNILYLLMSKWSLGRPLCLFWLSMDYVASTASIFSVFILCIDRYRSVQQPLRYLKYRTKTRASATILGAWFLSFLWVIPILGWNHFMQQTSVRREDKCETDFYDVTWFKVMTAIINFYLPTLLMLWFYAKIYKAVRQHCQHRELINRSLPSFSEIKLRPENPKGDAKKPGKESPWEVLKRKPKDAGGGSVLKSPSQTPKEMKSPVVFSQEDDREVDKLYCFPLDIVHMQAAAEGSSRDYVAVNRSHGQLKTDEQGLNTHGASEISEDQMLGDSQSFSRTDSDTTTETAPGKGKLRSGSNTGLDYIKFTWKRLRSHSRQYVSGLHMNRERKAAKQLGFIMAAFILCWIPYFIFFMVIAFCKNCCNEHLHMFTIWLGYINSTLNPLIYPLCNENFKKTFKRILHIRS

[2] = molecular target: T2, Muscarinic acetylcholine receptor M1 (Homo sapiens, UniProt P11229); assay: Displacement of [3H]N-methyl Scopolamine from human muscarinic M1 receptor expressed in CHO Flp-In cells by liquid scintillation counting; format: cell-based
T2 sequence (P11229 whole entry): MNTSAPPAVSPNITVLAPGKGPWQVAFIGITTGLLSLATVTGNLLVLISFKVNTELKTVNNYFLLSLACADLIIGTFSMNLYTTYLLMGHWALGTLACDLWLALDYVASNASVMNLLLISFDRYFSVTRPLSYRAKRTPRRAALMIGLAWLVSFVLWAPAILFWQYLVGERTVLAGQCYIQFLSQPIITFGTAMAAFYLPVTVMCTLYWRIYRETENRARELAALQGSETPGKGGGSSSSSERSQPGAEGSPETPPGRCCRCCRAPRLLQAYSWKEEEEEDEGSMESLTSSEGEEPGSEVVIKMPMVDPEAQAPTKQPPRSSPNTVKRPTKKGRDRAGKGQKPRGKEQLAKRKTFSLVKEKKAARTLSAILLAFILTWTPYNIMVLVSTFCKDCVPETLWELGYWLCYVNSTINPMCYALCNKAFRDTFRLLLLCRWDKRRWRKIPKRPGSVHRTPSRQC

Cytochrome P450 2D6 = Cytochrome P450 2D6 (Homo sapiens, UniProt P10635); assay: Inhibition of CYP2D6; format: ADME
Sequence of Cytochrome P450 2D6 (P10635 whole entry): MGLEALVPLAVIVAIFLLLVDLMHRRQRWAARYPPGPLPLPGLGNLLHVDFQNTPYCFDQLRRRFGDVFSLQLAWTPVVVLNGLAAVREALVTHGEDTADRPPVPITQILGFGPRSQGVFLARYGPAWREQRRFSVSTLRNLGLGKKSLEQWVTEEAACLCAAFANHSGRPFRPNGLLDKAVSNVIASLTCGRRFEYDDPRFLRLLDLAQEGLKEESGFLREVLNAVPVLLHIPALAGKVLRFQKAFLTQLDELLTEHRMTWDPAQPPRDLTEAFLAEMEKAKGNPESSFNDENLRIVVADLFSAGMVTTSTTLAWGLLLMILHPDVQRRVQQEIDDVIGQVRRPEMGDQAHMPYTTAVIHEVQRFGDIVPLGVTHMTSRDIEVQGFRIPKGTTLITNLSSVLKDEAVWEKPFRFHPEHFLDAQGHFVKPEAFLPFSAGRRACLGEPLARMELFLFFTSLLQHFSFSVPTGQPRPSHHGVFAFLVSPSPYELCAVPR

[3] = molecular target: T1, Voltage-gated inwardly rectifying potassium channel KCNH2; assay: Inhibition of human ERG channel by electrophysiology assay
Liver microsomes = assay: Metabolic stability in human liver microsomes; format: ADME, Microsome
CYP3A4 = CYP3A4 (Homo sapiens, UniProt P08684); assay: as §1; format: ADME
Sequence of CYP3A4 (P08684 whole entry): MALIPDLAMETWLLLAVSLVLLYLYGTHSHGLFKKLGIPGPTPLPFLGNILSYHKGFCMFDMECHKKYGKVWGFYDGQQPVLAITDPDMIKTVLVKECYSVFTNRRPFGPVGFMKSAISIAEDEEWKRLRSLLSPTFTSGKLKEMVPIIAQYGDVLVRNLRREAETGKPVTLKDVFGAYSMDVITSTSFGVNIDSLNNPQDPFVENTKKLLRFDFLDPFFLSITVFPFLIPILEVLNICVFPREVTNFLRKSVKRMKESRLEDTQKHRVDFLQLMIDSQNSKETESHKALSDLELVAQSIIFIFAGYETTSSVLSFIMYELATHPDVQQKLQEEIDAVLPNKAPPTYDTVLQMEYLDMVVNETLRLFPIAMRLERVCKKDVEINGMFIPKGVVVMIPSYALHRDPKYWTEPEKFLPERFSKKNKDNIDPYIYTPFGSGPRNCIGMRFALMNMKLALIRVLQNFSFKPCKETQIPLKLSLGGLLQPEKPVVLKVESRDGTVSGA

hERG (KCNH2) = hERG (KCNH2) (Homo sapiens, UniProt Q12809); assay: Inhibition of human ERG channel at 10 uM by patch clamp assay
Sequence of hERG (KCNH2) (Q12809 whole entry): as the sequence (Q12809 whole entry) above

[4] = molecular target: T1, Voltage-gated inwardly rectifying potassium channel KCNH2; assay: Inhibition of human ERG channel by patch clamp assay
[5] = Solubility in 0.15 M KCl buffer at pH 7.4 by potentiometric method; format: physicochemical

Sequence of Cytochrome P450 3A4 (P08684 whole entry): as the sequence (P08684 whole entry) above

COc1ccc(Cn2c(C3CCCN(C4CCOCC4)C3)nc3ccccc32)cc1 (configuration not stated)
IC50 (Cytochrome P450 3A4): > 5 µM
Ki [1]: > 10 µM

COc1ccc(Cn2c(N3CC[C@@H](N(C)C)C3)nc3ccccc32)cc1
Ki (Histamine H1 receptor): 0.0084 µM
Ki [2]: 2.5 µM
IC50 (Cytochrome P450 2D6): > 10 µM
IC50 (Cytochrome P450 3A4): > 5 µM
IC50 [3]: 0.233 µM
Stability (Liver microsomes): Stable

CCOCCn1c(C2CCCN(C3CCCCC3)C2)nc2ccccc21 (configuration not stated)
IC50 (Cytochrome P450 3A4): > 5 µM
Ki [1]: > 10 µM

COc1ccc(Cn2c(C3CCCN(C(C)C)C3)nc3ccccc32)cc1 (configuration not stated)
IC50 (Cytochrome P450 3A4): > 5 µM
Ki [1]: 2.65 µM

CCOCCn1c(C2CCCN(C3CCOCC3)C2)nc2ccccc21 (configuration not stated)
IC50 (Cytochrome P450 3A4): > 5 µM
Ki [1]: > 3 µM

Cc1csc(Cn2c(C3CCCN(C)C3)nc3ccccc32)n1 (configuration not stated)
IC50 (Cytochrome P450 3A4): > 5 µM
Ki [1]: > 10 µM

CC(C)N1CCCC(c2nc3ccccc3n2Cc2ccc(F)cc2)C1 (configuration not stated)
IC50 (Cytochrome P450 3A4): > 5 µM
Ki [1]: 1.37 µM

CN1CCCC(c2nc3ccccc3n2Cc2ccccn2)C1 (configuration not stated)
IC50 (Cytochrome P450 3A4): > 5 µM
Ki [1]: > 10 µM

CN(CC1CCOCC1)C1CCN(c2nc3ccccc3n2Cc2ccc(F)cc2)CC1
Ki [2]: 4.8 µM
IC50 (CYP3A4): > 5 µM

Fc1ccc(Cn2c(C3CCCN(C4CCCCC4)C3)nc3ccccc32)cc1 (configuration not stated)
IC50 (Cytochrome P450 3A4): > 5 µM
Ki [1]: 0.926 µM

Cc1csc(Cn2c(C3CCCN(C4CCOCC4)C3)nc3ccccc32)n1 (configuration not stated)
IC50 (Cytochrome P450 3A4): > 5 µM
Ki [1]: > 3 µM

COc1ccc(Cn2c(C3CCCN(C)C3)nc3ccccc32)cc1 (configuration not stated)
IC50 (Cytochrome P450 3A4): > 5 µM
Ki [1]: > 5 µM

CN1CCC[C@H](c2nc3ccccc3n2Cc2ccccn2)C1
inhibition (INH) (Cytochrome P450 3A4): Not Active
Ki [1]: > 10 µM

CN1CCCC(c2nc3ccccc3n2CCOc2ccccc2)C1 (configuration not stated)
IC50 (Cytochrome P450 3A4): > 5 µM

CCOCCn1c(C2CCCN(C)C2)nc2ccccc21 (configuration not stated)
IC50 (Cytochrome P450 3A4): > 5 µM

Cc1csc(Cn2c(C3CCCN(C4CCCCC4)C3)nc3ccccc32)n1 (configuration not stated)
IC50 (Cytochrome P450 3A4): > 5 µM
Ki [1]: 1.18 µM

CN1CCCC(c2nc3ccccc3n2CC2CCCO2)C1 (configuration not stated)
IC50 (Cytochrome P450 3A4): > 5 µM
Ki [1]: 0.638 µM

COc1ccc(Cn2c(C3CCCN(C4CCCCC4)C3)nc3ccccc32)cc1 (configuration not stated)
Ki [1]: 1.84 µM

CN1CCC[C@@H](c2nc3ccccc3n2Cc2ccccn2)C1
inhibition (INH) (Cytochrome P450 3A4): Not Active
Ki [1]: 10.3 µM
inhibition at 10 µM (hERG (KCNH2)): 39%

CCOCCn1c([C@@H]2CCCN(C3CCOCC3)C2)nc2ccccc21
inhibition (INH) (Cytochrome P450 3A4): Not Active
Ki [1]: > 3 µM
IC50 [4]: 2.1 µM

CCOCCn1c(N2CC[C@H](N(C)C)C2)nc2ccccc21
Ki (Histamine H1 receptor): 0.0048 µM
Ki [2]: 1.5 µM
IC50 (Cytochrome P450 2D6): > 10 µM
IC50 (Cytochrome P450 3A4): > 5 µM
IC50 [3]: 0.021 µM
Stability (Liver microsomes): Stable

CCOCCn1c([C@@H]2CCCN(C)C2)nc2ccccc21
inhibition (INH) (Cytochrome P450 3A4): Not Active

Cc1cnn(C2CCN(c3nc4ccccc4n3Cc3ccc(F)cc3)CC2)c1
solubility [5]: < 10 µg/mL

CCOCCn1c([C@H]2CCCN(C)C2)nc2ccccc21
inhibition (INH) (Cytochrome P450 3A4): Not Active
